ChEMBL document CHEMBL1201862, “PubChem BioAssay data set” (2004)
Blank lines part the entries; values can stand above or below the compound they belong to. The source made the active and inactive calls.

Experiments:
[1] = molecular target: FAD-linked sulfhydryl oxidase ALR (Homo sapiens, UniProt P55789); assay: inhibitors of human ALR sulfhydryl oxidase, dose response, biochemical, H2O2 detection, luminescence, cherry-pick (AID 493248)
[2] = molecular target: T1, Rac GTPase-activating protein 1 (Homo sapiens, UniProt Q9H0H5); assay: MgcRacGAP GTPase-activating activity inhibitors, confirmation, biochemical, ADP Hunter fluorescence, primary and confirmatory (AID 624330); assay type: functional
T1 sequence (Q9H0H5 whole entry): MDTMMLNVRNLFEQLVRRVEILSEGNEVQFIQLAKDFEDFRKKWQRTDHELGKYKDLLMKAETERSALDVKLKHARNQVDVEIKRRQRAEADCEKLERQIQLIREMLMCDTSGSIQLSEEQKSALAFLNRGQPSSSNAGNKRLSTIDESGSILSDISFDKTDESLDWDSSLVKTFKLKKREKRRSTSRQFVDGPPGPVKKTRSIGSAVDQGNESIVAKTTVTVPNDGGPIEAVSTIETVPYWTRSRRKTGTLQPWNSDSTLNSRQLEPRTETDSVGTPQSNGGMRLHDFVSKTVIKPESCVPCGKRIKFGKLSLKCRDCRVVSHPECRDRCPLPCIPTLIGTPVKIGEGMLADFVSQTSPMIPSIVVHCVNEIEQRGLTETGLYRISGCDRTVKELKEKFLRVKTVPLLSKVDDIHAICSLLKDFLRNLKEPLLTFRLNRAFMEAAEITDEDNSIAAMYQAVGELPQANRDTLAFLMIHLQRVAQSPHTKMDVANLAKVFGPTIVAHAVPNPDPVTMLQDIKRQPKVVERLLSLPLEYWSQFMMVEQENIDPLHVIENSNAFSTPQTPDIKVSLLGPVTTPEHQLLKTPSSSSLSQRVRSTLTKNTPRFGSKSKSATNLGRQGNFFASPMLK

[3] = inhibitors of Vif binding to APOBEC3G peptide, primary screen, biochemical, TR-FRET, GST-Vif 1-94, biotin-A3G peptide, dose response retest (AID 1117319); assay type: functional;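 further: TR-FRET signal of purified GST-Vif binding a biotinylated A3G peptide; inhibitors lower the FRET signal by blocking Vif and A3G binding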
Cytochrome P450 3A4 = Cytochrome P450 3A4 (Homo sapiens, UniProt P08684);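 further: CYP3A4 tested as one member of a cytochrome P450 panel screen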
Cytochrome P450 3A4, sequence (P08684 whole entry): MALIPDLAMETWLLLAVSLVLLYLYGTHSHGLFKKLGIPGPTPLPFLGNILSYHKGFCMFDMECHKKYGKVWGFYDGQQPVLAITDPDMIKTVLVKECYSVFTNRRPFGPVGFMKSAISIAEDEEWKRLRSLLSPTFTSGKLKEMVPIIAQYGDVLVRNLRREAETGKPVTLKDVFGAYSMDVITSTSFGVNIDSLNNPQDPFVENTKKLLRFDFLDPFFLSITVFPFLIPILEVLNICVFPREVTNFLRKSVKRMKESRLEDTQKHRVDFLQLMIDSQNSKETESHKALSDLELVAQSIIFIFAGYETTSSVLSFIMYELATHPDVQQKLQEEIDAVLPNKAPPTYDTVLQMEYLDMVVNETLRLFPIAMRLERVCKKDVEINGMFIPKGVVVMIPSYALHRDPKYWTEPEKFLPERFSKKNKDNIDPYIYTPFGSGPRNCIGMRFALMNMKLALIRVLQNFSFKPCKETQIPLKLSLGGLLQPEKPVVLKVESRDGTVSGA

[4] = molecular target: Glutathione-S-transferase (Schistosoma japonicum, UniProt Q26513); assay: biotin-GST/anti-GST TR-FRET signal inhibitors, dose response, artefact control for Vif-APOBEC3G degradation inhibitor project, biochemical (AID 1117362); assay type: functional
Glutathione-S-transferase, sequence (Q26513 whole entry): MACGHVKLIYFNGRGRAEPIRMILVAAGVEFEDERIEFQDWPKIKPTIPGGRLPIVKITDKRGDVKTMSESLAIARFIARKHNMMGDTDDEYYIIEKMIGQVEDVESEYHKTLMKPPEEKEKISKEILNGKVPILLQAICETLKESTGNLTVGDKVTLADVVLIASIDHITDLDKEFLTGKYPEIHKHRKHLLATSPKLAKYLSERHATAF

Cytochrome P450 2C19 = Cytochrome P450 2C19 (Homo sapiens, UniProt P33261); assay: Cytochrome panel assay with activity outcomes. Panel member name: p450-cyp2c19 Compounds with AC50 equal or less than 10 uM are considered active; assay type: functional
Cytochrome P450 2C19, sequence (P33261 whole entry): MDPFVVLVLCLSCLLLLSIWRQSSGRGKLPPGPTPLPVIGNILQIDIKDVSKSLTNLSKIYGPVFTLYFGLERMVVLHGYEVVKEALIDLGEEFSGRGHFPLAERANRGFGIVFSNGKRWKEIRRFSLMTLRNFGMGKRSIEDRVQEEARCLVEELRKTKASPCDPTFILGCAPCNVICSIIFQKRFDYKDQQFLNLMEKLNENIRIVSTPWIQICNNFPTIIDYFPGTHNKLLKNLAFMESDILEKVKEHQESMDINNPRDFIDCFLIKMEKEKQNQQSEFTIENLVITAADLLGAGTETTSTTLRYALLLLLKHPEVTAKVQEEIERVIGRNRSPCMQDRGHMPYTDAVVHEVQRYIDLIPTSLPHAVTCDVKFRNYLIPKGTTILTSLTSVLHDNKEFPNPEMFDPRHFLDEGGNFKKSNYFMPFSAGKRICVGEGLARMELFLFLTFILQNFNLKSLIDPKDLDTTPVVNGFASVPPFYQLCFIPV

Cytochrome P450 2D6 = Cytochrome P450 2D6 (Homo sapiens, UniProt P10635);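 further: CYP2D6 member of a cytochrome P450 panel assay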
Cytochrome P450 2D6, sequence (P10635 whole entry): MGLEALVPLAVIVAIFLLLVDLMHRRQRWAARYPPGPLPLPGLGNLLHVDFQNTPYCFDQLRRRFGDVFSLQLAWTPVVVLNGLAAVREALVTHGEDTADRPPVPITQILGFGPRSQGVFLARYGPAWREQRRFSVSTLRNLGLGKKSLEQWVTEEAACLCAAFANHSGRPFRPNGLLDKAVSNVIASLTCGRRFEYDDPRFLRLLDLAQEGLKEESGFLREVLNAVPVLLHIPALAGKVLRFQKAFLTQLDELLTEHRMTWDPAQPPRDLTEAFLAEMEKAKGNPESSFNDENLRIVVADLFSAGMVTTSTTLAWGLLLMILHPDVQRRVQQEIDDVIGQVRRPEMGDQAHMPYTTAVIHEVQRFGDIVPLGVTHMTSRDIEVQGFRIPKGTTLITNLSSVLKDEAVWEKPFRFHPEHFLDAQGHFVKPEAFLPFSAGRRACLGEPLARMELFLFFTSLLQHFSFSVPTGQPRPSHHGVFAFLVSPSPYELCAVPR

[5] = P. falciparum late gametocyte killing, dose response, luminescence (AID 1117278); assay type: functional, cell-based;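 further: gametocytes exposed to compound for 24 hours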
[6] = Jurkat T cell cytotoxicity, dose response, cytotoxicity control for P. falciparum gametocyte viability project, luminescence (AID 1117277); assay type: functional, cell-based;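 further: potency reflects loss of cellular ATP meaning fewer viable cells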
[7] = molecular target: Voltage-gated inwardly rectifying potassium channel KCNH2 (Homo sapiens, UniProt Q12809); assay: hERG protection from proarrhythmic block, potency, dose response, cell-based, thallium flux (AID 2121); assay type: ADME
Voltage-gated inwardly rectifying potassium channel KCNH2, sequence (Q12809 whole entry): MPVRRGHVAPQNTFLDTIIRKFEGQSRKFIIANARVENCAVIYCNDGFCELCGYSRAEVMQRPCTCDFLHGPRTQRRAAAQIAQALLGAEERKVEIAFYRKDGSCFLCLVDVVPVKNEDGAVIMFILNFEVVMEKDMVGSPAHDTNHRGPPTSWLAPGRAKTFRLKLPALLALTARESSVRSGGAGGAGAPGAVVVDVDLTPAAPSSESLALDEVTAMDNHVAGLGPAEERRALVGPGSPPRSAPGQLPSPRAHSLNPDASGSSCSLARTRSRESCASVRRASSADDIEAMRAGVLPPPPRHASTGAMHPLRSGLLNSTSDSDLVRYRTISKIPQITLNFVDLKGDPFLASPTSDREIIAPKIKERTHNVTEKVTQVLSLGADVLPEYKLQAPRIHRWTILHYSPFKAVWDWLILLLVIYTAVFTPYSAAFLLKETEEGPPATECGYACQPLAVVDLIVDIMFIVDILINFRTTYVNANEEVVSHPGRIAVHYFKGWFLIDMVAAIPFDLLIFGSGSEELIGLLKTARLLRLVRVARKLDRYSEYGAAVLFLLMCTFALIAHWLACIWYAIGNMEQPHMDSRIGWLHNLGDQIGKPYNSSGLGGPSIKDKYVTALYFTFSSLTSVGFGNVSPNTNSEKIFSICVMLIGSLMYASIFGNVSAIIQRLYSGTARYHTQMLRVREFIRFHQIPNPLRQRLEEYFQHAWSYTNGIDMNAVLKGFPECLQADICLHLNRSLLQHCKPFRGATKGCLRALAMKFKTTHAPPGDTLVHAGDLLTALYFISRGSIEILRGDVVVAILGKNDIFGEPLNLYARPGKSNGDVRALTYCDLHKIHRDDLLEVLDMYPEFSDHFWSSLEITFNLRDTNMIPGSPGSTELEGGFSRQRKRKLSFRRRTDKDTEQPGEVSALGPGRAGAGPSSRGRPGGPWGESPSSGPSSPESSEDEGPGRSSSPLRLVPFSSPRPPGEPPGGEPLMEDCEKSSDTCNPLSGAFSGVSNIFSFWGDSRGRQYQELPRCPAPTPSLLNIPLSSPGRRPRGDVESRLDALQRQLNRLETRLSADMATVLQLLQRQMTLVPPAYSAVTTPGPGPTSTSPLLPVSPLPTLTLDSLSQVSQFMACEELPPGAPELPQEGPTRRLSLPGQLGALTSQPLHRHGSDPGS

[8] = molecular target: T2, Low molecular weight phosphotyrosine protein phosphatase (Homo sapiens, UniProt P24666); assay: LMPTP phosphatase inhibitors, dose response, biochemical, OMFP substrate, fluorescence intensity, set 2 (AID 743307); assay type: functional
T2 sequence (P24666 whole entry): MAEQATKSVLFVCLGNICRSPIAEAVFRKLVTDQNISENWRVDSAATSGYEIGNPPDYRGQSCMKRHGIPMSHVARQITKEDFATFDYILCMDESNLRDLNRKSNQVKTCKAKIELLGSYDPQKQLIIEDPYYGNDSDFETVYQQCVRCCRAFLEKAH

[9] = molecular target: T2, Low molecular weight phosphotyrosine protein phosphatase; assay: LMPTP phosphatase inhibitors, colorimetric pNPP readout, dose response, orthogonal assay, biochemical, absorbance, pNPP substrate, LMPTP-A isoform, set 2 (AID 743308); assay type: functional
[10] = molecular target: RNA-editing ligase 1, mitochondrial (Trypanosoma brucei brucei, UniProt P86926); assay: TbREL1 ligase inhibitors, dose response, biochemical, fluorescence, Trypanosoma brucei (AID 1117295); assay type: functional
RNA-editing ligase 1, mitochondrial, sequence (P86926 whole entry): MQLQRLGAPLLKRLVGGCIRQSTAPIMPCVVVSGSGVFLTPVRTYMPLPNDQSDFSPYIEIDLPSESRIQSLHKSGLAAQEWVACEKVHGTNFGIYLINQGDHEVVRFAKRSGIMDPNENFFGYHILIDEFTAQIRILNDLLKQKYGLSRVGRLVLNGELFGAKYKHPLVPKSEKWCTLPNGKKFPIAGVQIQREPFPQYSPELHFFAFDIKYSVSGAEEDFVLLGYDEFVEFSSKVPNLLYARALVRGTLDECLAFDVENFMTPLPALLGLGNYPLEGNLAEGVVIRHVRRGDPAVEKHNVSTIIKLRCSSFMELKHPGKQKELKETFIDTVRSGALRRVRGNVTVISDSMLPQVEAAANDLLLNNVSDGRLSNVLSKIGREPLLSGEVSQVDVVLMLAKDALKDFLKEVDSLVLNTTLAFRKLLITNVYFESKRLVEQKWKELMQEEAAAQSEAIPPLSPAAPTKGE

FAD-linked sulfhydryl oxidase ALR, sequence (P55789 whole entry): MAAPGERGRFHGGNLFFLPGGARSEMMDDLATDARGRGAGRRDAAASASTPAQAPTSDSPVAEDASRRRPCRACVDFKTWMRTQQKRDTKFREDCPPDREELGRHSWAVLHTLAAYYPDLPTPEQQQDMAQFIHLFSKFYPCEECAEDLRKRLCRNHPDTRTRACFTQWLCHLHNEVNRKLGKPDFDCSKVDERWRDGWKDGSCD

AC50 [1]: 0.249 µM (active) | IC50 [2]: 44.3 µM (active) | IC50 [3]: > 100 µM (active)
Compound: COc1cc(/C=N/NC2=NC(=O)C(c3ccccc3)S2)ccc1O (stereo not given)

Compound: C=CCn1c(C)c(C(C)=O)c(N2CCN(c3ccccc3)CC2)nc1=S
AC50 (Cytochrome P450 3A4): 25.1 µM (inconclusive) | IC50 [4]: 19.8 µM (active) | AC50 (Cytochrome P450 2C19): 5.62 µM (inconclusive) | AC50 (Cytochrome P450 2D6): 22.4 µM (inconclusive)

Compound: O=C(Nc1ccc(S(=O)(=O)N2CCCC2)cc1)C1CC(=O)N(c2ccccc2)C1 (stereo not given)
IC50 [5]: > 109 µM (inactive) | IC50 [6]: > 83.3 µM (inactive)

Compound: CC(C)CSc1oc(-c2ccco2)nc1S(=O)(=O)c1ccccc1
IC50 [5]: > 109 µM (inactive) | IC50 [6]: > 83.3 µM (inactive)

Compound: O=C(NC(=S)Nc1cc(C(F)(F)F)ccc1N1CCOCC1)c1ccco1
EC50 [7]: 4.72 µM (active)

IC50 [8]: 14.5 µM (active) | IC50 [9]: 58.5 µM (inactive)
Compound: CC(C)CNc1nc(-c2ccccc2)nc2ccccc12

IC50 [10]: > 96.6 µM (inactive)
Compound: CCNC1=NC(c2ccccc2C(F)(F)F)C(C(=O)OC)=C(C)N1Cc1ccc(C(F)(F)F)cc1 (stereo not given)
